# Reference: US12599597B2, “Substituted N-benzhydrylacetamide inhibitors of jumanji domain histone demethylases for the treatment of cancer” (University of Kentucky Research Foundation, priority 2020, dated 2026)
# What was measured:
# [1] = test system: Wnt target genes in LS174T colon cancer cells; assay: Western blotting of Wnt target genes in colon cancer cells; type: cell-based
# Excerpt: The activities of 58B1 were validated by western blotting.
# (§1) Identification of a CBA-1 as a novel Wnt inhibitor. The present inventors routinely use TOPFlash reporter assay for Wnt inhibitor screening. To mimic the constitutively active Wnt signaling found in CRC cells, Wnt signaling was activated by inhibiting GSK3 and stabilizing β-catenin. From screening in house small-molecule libraries, CBA-1 (FIG. 4) was identified that inhibited Wnt signaling in TOPFlash reporter assay. To validate the screening results, CBA-1 was tested in CRC cells.
# [2] = test system: H3K9Me2 on the promoter of c-Myc gene; assay: ChIP assay followed by qPCR; type: cell-based
# Excerpt: CBA-1 increased repressive histone methylation on Wnt target genes. The present inventors reported that mutations in APC or β-catenin N-terminal phosphorylation sites prevented β-catenin degradation in CRC cells. […] Because CBA-1 inhibited Wnt signaling in CRC cells, it was reasonable to assume that it inhibited Wnt signaling downstream of β-catenin, most likely by blocking β-catenin activity in the nucleus. Consequently, the present inventors hypothesized that CBA-1 inhibited Wnt signaling epigenetically by altering chromatin remodeling, and they probed the effects of CBA-1 on histone methylation in CRC cells.
# Wnt signaling [3] = assay: TOPFlash (Wnt) reporter assay in stable HEK293T cell line; type: cell-based
# Excerpt: Wnt signaling is a key target for multiple human cancers, including but not limited to colon cancer, liver cancer, and lung cancer. To identify novel Wnt regulators by high throughput screening, a stable HEK293T cell line containing the TOPFlash reporter was established. Since β-catenin is often activated by mutations in the Wnt pathway, it is important to inhibit Wnt signaling downstream of β-catenin activity. Therefore, the screen was specifically designed to identify Wnt inhibitors that target events downstream of β-catenin. The Wnt signaling was activated by treating cells with lithium chloride to inhibit GSK3 and to stabilize β-catenin, mimicking the constitutively active Wnt signaling in cancer cells. Through this screen, a family of novel Wnt inhibitors that inhibited Wnt signaling at a 0.5-10 μM concentrations (Table 1) was identified.
# After 6 h, the cells were treated with 25 mM LiCl to activate Wnt signaling. The inhibition ratio of each compound was determined (Table 1).
# For the SAR studies, 58B1 (VMS-7-133) was re-synthesized. Additionally, SD70, a commercial KDM4 inhibitor, was both purchased and re-synthesized (VMS-7-175). […] VMS-7-195 is a biotinylated analog of 58B1. […] Specific KDM inhibitors may be used to target specific KDMs, such as KDM3A, which is highly expressed in many human cancers.
# as §1
# Wnt signaling [4] = assay: Zebrafish Wnt signaling models; type: in vivo
# Excerpt: FIGS. 1A-F show a KDM3A inhibitor, called “58B1,” that inhibited Wnt signaling in vitro and in vivo. (A) Docking of 58B1 to the Jumonji domain. (B) 58B1 inhibited KDM3A enzymatic activity in vitro. (C) KDM3A was overexpressed in CRC. (D) 58B1 increased repressor markers, H3K9Me^2 and K3K9Me^3. (E) 58B1 inhibited Wnt target genes in CRC cells. (F) 58B1 inhibited Wnt signaling in a transgenic zebrafish model. In this model, GFP was control by a Wnt-responsive promoter. In the control fish, GFP was expressed in the tail, where has higher levels on Wnt signaling. 58B1 treatment abolished GFP expression in the tail.
# CBA-1 inhibited Wnt signaling in Zebrafish models. Zebrafish provide a well-established in vivo model to study Wnt signaling. Wnt signaling is active in the tail of the larvae during development (FIG. 4), and CBA-1 inhibited Wnt signaling in the tail. […] To rule out the possibility that CBA-1 inhibits the Wnt-mediated phenotype through nonspecific or even toxic effects, an eye-rescue experiment was performed.
# JMJD3 (KDM6B) = JMJD3 (KDM6B) (Homo sapiens, UniProt O15054); assay: Histone demethylase assay, purified enzyme panel; type: biochemical; conditions: 58B1, 10 μM
# JMJD3 (KDM6B), sequence (O15054 whole entry): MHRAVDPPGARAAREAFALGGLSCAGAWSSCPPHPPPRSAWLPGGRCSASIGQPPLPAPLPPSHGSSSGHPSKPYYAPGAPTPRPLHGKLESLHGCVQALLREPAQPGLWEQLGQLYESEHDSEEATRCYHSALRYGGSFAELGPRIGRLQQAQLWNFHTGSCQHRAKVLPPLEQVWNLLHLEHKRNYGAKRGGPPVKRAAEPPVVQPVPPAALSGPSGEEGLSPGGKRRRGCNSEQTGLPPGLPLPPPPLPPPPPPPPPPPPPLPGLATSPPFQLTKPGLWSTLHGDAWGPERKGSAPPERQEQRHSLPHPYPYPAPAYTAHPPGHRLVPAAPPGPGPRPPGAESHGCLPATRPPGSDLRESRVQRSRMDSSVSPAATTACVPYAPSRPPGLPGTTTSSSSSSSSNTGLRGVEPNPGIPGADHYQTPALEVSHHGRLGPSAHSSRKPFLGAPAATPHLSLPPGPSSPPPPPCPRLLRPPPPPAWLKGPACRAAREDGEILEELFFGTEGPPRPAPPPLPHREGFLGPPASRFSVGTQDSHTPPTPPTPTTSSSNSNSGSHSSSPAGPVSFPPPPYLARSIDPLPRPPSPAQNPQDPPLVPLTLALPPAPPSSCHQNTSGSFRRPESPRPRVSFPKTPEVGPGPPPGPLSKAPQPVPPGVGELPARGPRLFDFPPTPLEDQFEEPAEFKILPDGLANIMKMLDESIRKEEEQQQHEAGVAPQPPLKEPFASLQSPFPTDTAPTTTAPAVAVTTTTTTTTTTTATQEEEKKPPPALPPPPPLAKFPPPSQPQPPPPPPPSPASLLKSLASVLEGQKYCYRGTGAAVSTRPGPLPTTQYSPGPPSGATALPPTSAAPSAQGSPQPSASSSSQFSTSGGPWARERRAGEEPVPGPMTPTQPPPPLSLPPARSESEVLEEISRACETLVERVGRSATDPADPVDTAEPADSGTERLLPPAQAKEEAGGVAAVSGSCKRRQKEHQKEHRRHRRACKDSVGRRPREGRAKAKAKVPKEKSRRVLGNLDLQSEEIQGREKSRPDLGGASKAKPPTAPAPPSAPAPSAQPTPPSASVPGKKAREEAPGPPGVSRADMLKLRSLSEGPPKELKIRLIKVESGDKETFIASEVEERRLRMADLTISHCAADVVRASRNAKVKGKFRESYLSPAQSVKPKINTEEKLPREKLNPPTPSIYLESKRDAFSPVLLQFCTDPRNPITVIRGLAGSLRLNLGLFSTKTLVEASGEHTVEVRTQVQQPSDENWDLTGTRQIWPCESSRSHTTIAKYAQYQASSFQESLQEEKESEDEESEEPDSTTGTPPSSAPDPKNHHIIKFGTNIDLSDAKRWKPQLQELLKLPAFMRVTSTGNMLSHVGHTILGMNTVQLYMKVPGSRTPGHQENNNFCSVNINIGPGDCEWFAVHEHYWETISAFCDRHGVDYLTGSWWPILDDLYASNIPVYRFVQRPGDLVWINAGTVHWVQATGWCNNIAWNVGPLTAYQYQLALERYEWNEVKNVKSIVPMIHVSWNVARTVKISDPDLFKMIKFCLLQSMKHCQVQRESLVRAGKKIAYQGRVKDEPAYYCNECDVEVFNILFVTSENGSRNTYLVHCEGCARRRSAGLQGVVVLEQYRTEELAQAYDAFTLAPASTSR
# Excerpt: (§2) Histone Demethylase Assay
# (§3) To further examine the effects of 58B1 on histone demethylase, we screened a panel of purified histone demethylases was screened.
# JMJD2C (KDM4C) = target: T1, JMJD2C (KDM4C) (Homo sapiens, UniProt Q9H3R0); assay: Histone demethylase assay, purified enzyme panel; type: biochemical; conditions: 58B1, 10 μM
# T1 sequence (Q9H3R0 1-1056): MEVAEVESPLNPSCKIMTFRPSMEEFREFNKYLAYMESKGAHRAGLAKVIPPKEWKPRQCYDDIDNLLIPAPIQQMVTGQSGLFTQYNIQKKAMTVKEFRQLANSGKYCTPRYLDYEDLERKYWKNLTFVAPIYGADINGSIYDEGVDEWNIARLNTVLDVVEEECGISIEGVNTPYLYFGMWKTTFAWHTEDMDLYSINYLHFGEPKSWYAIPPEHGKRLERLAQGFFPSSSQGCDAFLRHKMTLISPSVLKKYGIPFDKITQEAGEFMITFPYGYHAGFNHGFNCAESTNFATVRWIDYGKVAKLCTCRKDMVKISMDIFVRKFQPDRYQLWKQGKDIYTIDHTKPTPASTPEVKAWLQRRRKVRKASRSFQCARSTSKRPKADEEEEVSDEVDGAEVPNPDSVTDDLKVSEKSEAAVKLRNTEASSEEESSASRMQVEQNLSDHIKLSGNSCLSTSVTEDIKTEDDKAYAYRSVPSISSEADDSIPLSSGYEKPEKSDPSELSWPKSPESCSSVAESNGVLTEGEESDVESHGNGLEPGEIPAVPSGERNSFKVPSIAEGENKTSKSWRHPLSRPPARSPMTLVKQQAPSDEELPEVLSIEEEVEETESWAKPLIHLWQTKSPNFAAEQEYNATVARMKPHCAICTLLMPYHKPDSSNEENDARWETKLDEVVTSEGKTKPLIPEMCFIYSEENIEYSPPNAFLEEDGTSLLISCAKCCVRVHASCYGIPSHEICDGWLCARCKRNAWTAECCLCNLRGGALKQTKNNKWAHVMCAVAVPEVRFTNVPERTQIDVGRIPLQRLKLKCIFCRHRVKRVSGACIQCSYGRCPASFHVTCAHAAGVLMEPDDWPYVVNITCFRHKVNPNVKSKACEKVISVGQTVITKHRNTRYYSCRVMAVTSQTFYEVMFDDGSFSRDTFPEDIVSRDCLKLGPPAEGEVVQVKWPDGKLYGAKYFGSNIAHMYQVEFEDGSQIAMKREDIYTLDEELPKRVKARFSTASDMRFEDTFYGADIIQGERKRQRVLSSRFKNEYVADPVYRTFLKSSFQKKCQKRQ
# Excerpt: as §2, §3
compound,measurement,setting,value
CCCC(=O)NC(c1ccc(N(CC)CC)cc1)c1cc(Cl)c2cccnc2c1O (stereo not drawn) [58B1],expression of Wnt target genes,"[1]; 5 μM, LS174T, western blotting",strongly inhibited
same,expression of Wnt target genes,"[1]; CRC cells (LS174T), concentration not given",repressed
same,levels of H3K9Me2 on the promoter of c-Myc gene,"[2]; ChIP, qPCR",increased
same,active markers H3K9Ac and H3K4Me^3 on the promoter of Wnt target genes in CRC cells,[2]; expected,decrease
same,repressive marker H3K9Me^2 on the promoter of Wnt target genes in CRC cells,[2]; expected,increase
same,inhibition,"Wnt signaling [3]; Homo sapiens, HEK-293T, Table 1, HEK293T TOPFlash, 25 mM LiCl after 6 h",95%
same,inhibition at 1 µM,"Wnt signaling [3]; Homo sapiens, HEK-293T, Table 3, Wnt reporter assay at 1 μM, read-out: Percent inhibition at 1 μM",90.9%
same,Wnt signaling in TOPFlash reporter assay,Wnt signaling [3]; screening of in house libraries,inhibited
same,GFP expression in the tail (Wnt-responsive promoter),Wnt signaling [4]; transgenic zebrafish model,abolished
same,Wnt-dependent tail regeneration,Wnt signaling [4]; zebrafish,reduced
same,toxicity in eye-rescue experiment,Wnt signaling [4]; zebrafish,without obvious toxicity effects
same,Wnt signaling in the tail,Wnt signaling [4]; zebrafish larvae,inhibited
same,Wnt-induced eye defects (eye-rescue experiment),"Wnt signaling [4]; zebrafish, dose-responsive manner",rescued
same,inhibition at 10 µM,JMJD3 (KDM6B),94%
same,inhibition at 10 µM,JMJD2C (KDM4C),72%
